Data published in patent US8106029B2, “Use of A2A adenosine receptor agonists” (Gilead Sciences, Inc., priority 2004, dated 2012).
Converted amounts (≈) assume the structure as drawn. Where two headings read alike, the source gives them in different places.

Legend:
Solubility in water = assay type: physicochemical
Method: Therefore, regadenoson can be dissolved and administered in water so long as the desired weight amount of regadenoson can be administered in an acceptable volume. For example, a preferred dose of about 400 micrograms can be administered in 8 mL of water.

[1] = Example 1: population PK after single IV bolus in healthy male subjects; assay type: in vivo; conditions: human
Method: (§1) The purpose of this study was to investigate the pharmacokinetics (PK), pharmacodynamics (PD), and the maximum tolerated dose of regadenoson in healthy human subjects.
(§2) Thirty-six healthy, male subjects were included in the study. […] ECG, blood pressure (BP), and heart rate (HR) were recorded for up to 24 hours post-dose. Adverse events (AE) were monitored for 24 hours post dose and via telephone 7 days later. A population approach was utilized in applying a three-compartmental PK model to the plasma concentration-time and a Michaelis-Menten model to the time-course of heart rate. The potential influence of various covariates on PK and PD model parameters was investigated.

[2] = Example 1: PD model (Michaelis-Menten) of heart rate time-course in healthy male subjects; assay type: in vivo, human
Method: as §1, §2

[3] = Example 1: tolerability / maximum tolerated dose in healthy male subjects; assay type: in vivo, human; conditions: for MTD at 24 h: male, human, in vivo, intravenous
Method: as §1, §2

[4] = Example 2: population PK in subjects undergoing cardiac catheterization; assay type: in vivo; conditions: both sexes, human, plasma
Method: (§3) The purpose of this study was to investigate the pharmacokinetics (PK) and pharmacodynamics (PD) of regadenoson in subjects undergoing clinically indicated cardiac catheterization.
(§4) Thirty-six male and female subjects undergoing clinically indicated coronary angiography were studied. […] ECG, average coronary peak flow velocity (APV), measured using intracoronary Doppler flow wire, blood pressure (BP), and heart rate (HR) were continuously monitored for up to 3 hours post-dose. Occurrence of adverse events (AEs) was monitored for approximately 3 hours post dosing and via telephone approximately 14 days later. A population approach was utilized in applying PK and PD models to the plasma concentration, APV, and HR data. The potential influence of various covariates on PK and PD model parameters was investigated.

[5] = Example 2: PD model of average coronary peak flow velocity (APV), intracoronary Doppler flow wire; assay type: in vivo, human
Method: as §3, §4

[6] = Example 2: PD model (Michaelis-Menten) of heart rate; assay type: in vivo, human; conditions: catheterization subjects
Method: as §3, §4

A2A-adenosine receptors [7] = molecular target: T1, A2A-adenosine receptors (Rattus norvegicus, UniProt P30543); experiment: Membrane binding, displacement of [3H]-ZM241385, rat brain striatal membranes; conditions: Rat striatum, mean ± SE, read-out: Membrane Binding, affinity [Ki]
T1 construct: rat brain striatal membranes; from tissue; host or cells: rat brain striatum membranes

A2A-adenosine receptors [8] = molecular target: T1, A2A-adenosine receptors; experiment: Membrane binding, displacement of [3H]-CG-S21680, rat brain striatal membranes; conditions: Rat striatum, mean ± SE, read-out: Membrane Binding, affinity [Ki]
human platelets [9] = experiment: Platelet aggregation; assay type: cell-based; conditions: mean ± SE, read-out: Platelet Aggregation, potency
human platelets [10] = experiment: Cell calcium mobilization, human platelets; assay type: cell-based; conditions: Platelet, mean ± SE, read-out: Cell calcium Mobilization, potency
human neutrophils = experiment: Superoxide anion production, human neutrophils; assay type: cell-based; conditions: Neutrophil, mean ± SE, read-out: Superoxide anion Production, potency
A2A-adenosine receptors [11] = conditions: average of the 12 assays

T1 sequence (P30543 whole entry): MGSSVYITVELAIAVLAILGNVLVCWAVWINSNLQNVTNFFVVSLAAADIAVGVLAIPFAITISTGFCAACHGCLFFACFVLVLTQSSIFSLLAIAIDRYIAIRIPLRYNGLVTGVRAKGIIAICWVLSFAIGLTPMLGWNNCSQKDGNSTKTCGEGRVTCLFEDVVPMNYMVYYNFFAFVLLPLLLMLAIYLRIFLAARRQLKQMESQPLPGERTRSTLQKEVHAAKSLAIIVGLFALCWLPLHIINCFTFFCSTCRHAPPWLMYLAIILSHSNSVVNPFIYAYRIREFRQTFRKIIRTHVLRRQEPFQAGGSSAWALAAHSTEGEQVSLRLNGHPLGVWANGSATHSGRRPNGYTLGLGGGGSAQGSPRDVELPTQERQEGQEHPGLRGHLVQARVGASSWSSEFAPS

SMILES: CNC(=O)c1cnn(-c2nc(N)c3ncn([C@@H]4O[C@H](CO)[C@@H](O)[C@H]4O)c3n2)c1 [regadenoson, (1-{9-[(4S,2R,3R,5R)-3,4-dihydroxy-5-(hydroxymethyl)oxolan-2-yl]-6-aminopurin-2-yl}pyrazol-4-yl)-N-methylcarboxamide]
- solubility (Solubility in water): ~50 µg/mL (≈ 128 µM)
- Vd ([1]; plasma, healthy male subjects, IV bolus, read-out: volume of distribution): 83.3 L
- clearance ([1]; plasma, healthy male subjects, single IV bolus 0.1 to 30 μg/kg, three-compartmental model, read-out: population value of clearance (CL) (converted)): 677 mL/min
- renal clearance as share of the total clearance ([1]; male, in vivo, iv): 57%
- EC50 ([2]; Homo sapiens, read-out: concentration causing half-maximal increase in HR (potency)): 0.0124 µg/mL (≈ 0.0318 µM)
- maximal increase in HR ([2]; healthy male subjects, model estimate): 76 bpm
- adverse events, severity ([3]; healthy male subjects, IV bolus 0.1 to 30 μg/kg): mild to moderate
- MTD at 24 h ([3]; standing, dose-limiting syncope or near syncope, read-out: maximum tolerated dose, standing position): 0.01 mg/kg
- MTD at 24 h ([3]; supine, read-out: maximum tolerated dose, supine position): 0.02 mg/kg
- dose generally well tolerated, standing patients ([3]; standing): up to 10 μg/kg
- dose generally well tolerated, supine patients ([3]; supine): up to 20 μg/kg
- Vd ([4]; IV bolus, read-out: volume of distribution): 68.1 L
- clearance ([4]; single IV bolus 10 to 500 μg, three-compartment model): 498 mL/min
- distribution rate constant from the plasma to the effect site ([5]; APV PD model): 4 min⁻¹
- EC50 ([5]; Homo sapiens, catheterization subjects, read-out: potency (concentration that causes half maximal effect) on APV): 0.0299 µg/mL (≈ 0.0766 µM)
- maximal increase in APV ([5]; model estimate, effect compartment): 105 cm/s
- EC50 ([6]; Homo sapiens, read-out: potency on HR): 0.0275 µg/mL (≈ 0.0704 µM)
- maximum increase in the HR ([6]; model estimate): 41 bpm
- Ki (A2A-adenosine receptors [7]): 318 ± 5 nM
- Ki (A2A-adenosine receptors [8]): 43 ± 3 nM
- IC50 (human platelets [9]): 437 ± 44 nM
- IC50 (human platelets [10]): 108 ± 8 nM
- IC50 (human neutrophils): 328 ± 32 nM

SMILES: CCNC(=O)[C@H]1O[C@@H](n2cnc3c(N)nc(NCCc4ccc(CCC(=O)O)cc4)nc32)[C@H](O)[C@@H]1O [CGS 21680]
- values of EC50 lower than for regadenoson, on average (A2A-adenosine receptors [11]): 13 fold
